{"source": "patent US9539303B2", "about": "“Treatment of Ras-expressing tumors” (Celgene Corporation, priority 2006, dated 2017)", "key": {"B-Raf 600E cells": {"tested_on": "B-Raf 600E cells", "assay": "4-day proliferation assay, B-Raf 600E NIH-3T3 cells", "format": "cell-based, mouse", "details": "2, 3, or 4 nM romidepsin", "description": "A series of transformed NIH-3T3 cell likes were generated and a proliferation assay was performed in the presence of 2, 3, or 4 nM romidepsin. FIG. 23 illustrates the transformed morphology of the cells. FIG. 24 presents graphs of cell proliferation."}, "[1]": {"tested_on": "PANC-1 human pancreatic tumor xenograft", "assay": "PANC-1 human pancreatic tumor xenograft tumor growth inhibition study (Example 3)", "format": "in vivo, female nude mice (nu/nu)", "details": "for % TGI / Final tumor volume mean ± SEM: Day 25", "description": "(Madison, Wis.). […] Tumor measurements were converted to cubic millimeter tumor volume using the formula^(5): […] TGI values for each treatment group are reported at study completion; these calculations are based on the final study day. […] Individual mice lacking palpable tumors were classified as undergoing complete regression (CR). Animals experiencing partial or complete tumor regressions were censored from TGI calculations. However, data from these animals was included in statistical analysis calculations. In addition, weight data from these animals was included in daily and final group calculations. Tumor Necrosis-Degree of tumor necrosis was rated at each tumor measurement using the following arbitrary index: […]"}, "acetylated histone 3": {"tested_on": "acetylated histone 3", "assay": "Tissue biomarker immunoblotting of PANC-1 xenograft tumors: acetylated histone 3", "format": "in vivo", "details": "PANC-1 tumors at study completion; FK228 5 mg/kg Q4Dx3, gemcitabine 80 mg/kg Q3Dx4, or both", "description": "Specimen Collection: […] Tumor xenograft tissue and serum specimens were obtained from in vivo studies performed by the Preclinical Research Laboratory at the completion of the experiments. […] Serum was obtained from whole blood and stored frozen at -70° C. Tissue Biomarkers: Tumor levels of acetylated histone-4, histone-4, […] were quantified by immunoblotting as described. Briefly, frozen tissue was pulverized under liquid nitrogen and homogenized in hypotonic lysis buffer. Small aliquots of the extracts were used for analysis of protein concentration by micro-BCA assay with bovine serum albumin as a protein standard. An equal amount of extracts containing about 20-50 μg protein was electrophoresed in SDS polyacrylamide gels. Proteins were transferred to ImmunoBlot PVDF membrane and were probed with appropriate primary and secondary antibodies. The chemiluminescence signal was captured by autoradiography, quantified by densitometry and expressed as a ratio of actin in each sample lane. For each biomarker, means and standard errors were calculated in each treatment group. […] Following quantitative analysis of biomarker levels in each sample, the results were normalized for b-actin and expressed as percentages of untreated controls. […]"}, "[2]": {"details": "PANC-1 study, FK228 2.5 mg/kg IV Q4Dx3"}, "[3]": {"details": "PANC-1 study, FK228 2.5 mg/kg IV Q4Dx3, 2.5 mg/kg"}, "[4]": {"details": "PANC-1 study, FK228 5 mg/kg IV Q4Dx3"}, "[5]": {"details": "PANC-1 study, FK228 5 mg/kg IV Q4Dx3, 5 mg/kg"}}, "note": "“And” between values parts separate entries of the source, which are not always exact repeats. Equal values may be shown once.", "data": [{"smiles": "C/C=C1\\NC(=O)[C@H]2CSSCC/C=C/[C@H](CC(=O)N[C@H](C(C)C)C(=O)N2)OC(=O)[C@H](C(C)C)NC1=O", "note": "[FK228, romidepsin]", "values": [{"measurement": "potency on proliferation", "setting": "B-Raf 600E cells", "value": "not potent"}, {"measurement": "% TGI", "setting": "[1]; [2]", "value": 26, "unit": "%"}, {"measurement": "Final tumor volume mean ± SEM", "setting": "[1]; [3]", "value": "1688±290", "unit": "MM^3"}, {"measurement": "% TGI", "setting": "[1]; [4]", "value": 26, "unit": "%"}, {"measurement": "Final tumor volume mean ± SEM", "setting": "[1]; [5]", "value": "1690±290 MM^3 and 1690 ± 331 MM^3"}, {"measurement": "Activity according to NCI standards", "setting": "[1]; [2]", "value": "inactive"}, {"measurement": "Tumor necrosis", "setting": "[1]; [2]", "value": "1/9 animals reported slight tumor necrosis, 1/9 reported mild tumor necrosis, 2/9 reported moderate necrosis, and 1/9 reported severe necrosis"}, {"measurement": "#PR/CR", "setting": "[1]; [3]", "value": "0/9 and 0/0"}, {"measurement": "Activity according to NCI standards", "setting": "[1]; [4]", "value": "inactive"}, {"measurement": "Tumor necrosis", "setting": "[1]; [4]", "value": "2/9 animals reported slight tumor necrosis, and 1/9 reported moderate necrosis"}, {"measurement": "#PR/CR", "setting": "[1]; [5]", "value": "0/9 and 0/0"}, {"measurement": "calculated TGI values", "setting": "[1]; PANC-1 study, at the evaluated doses and schedules", "value": "less than 58%"}, {"measurement": "antitumor activity (overall conclusion)", "setting": "[1]; ras-transformed PANC-1 model, all evaluated doses", "value": "some activity"}, {"measurement": "acetylation of histone 3", "setting": "acetylated histone 3", "value": "not affected"}]}]}
